Experimental findings from patent US20240105277A1, “DRUG DISCOVERY VIA REI[…] WITH THREE-D[…]” (priority 2022, published 2024) are described below.

Several values for one entry are separate records, joined by “and”; a condition that tells them apart may be missing. Equal entries are not always repeated. Where two headings read alike, the source gives them in different places.

One series has as its system Vero E6 (CRL-1586) cells. As to the kind of experiment: Cytotoxicity and cytopathic effect assay. It counts as cell-based. The following applies: concentrations up to 10 μM, with or without PZ. As to the method: The in vitro antiviral activity of all four hits was evaluated in Vero E6 (CRL-1586) cells. The antiviral properties of the inhibitors were assessed in the absence and presence of an efflux pump inhibitor (CP-100356, labeled PZ). […] Because of high cytotoxic effects of these compounds at high doses, the high doses were removed in the EC50 curve fit for these compounds.
Briefly, on the day of infection, 5×10^3 Vero E6 cells were seeded in 20 μL cell culture medium (containing 5% FBS) in 384-well plates, using a MultiFlo FX multi-mode microplate dispenser (BioTek). The same day, compounds were added to the cells (25 μL/well, in EMEM with 5% FBS, 1% P/S), with 2 wells per concentration. After 2 h of compound preincubation, 5 μL of virus was added to the wells using a multi-channel pipette to MOI=0.1. Viruses were diluted in EMEM with 5% FBS, 1% P/S and was kept on ice until cells were ready for infection. Eight virus-only control wells were included as the […]. The virus plus cells and the cells were used to normalize the data set. After 72 h, 30 μL of CellTiter-Glo (Promega) was dispensed into each well by a MultiFlo FX multi-mode microplate dispenser. After a 10 min incubation at room temperature, the plates were loaded into a Perkin EnVision multi-mode microplate reader to read luminescence.
For orientation: Protection from cytopathic effect is a common read-out in antiviral testing.

Series [1] has as its target T1, SARS-CoV-2 M^pro (Severe acute respiratory syndrome coronavirus 2, UniProt P0DTD1). The following applies: for fold decrease in IC50, initial vs final inhibition value: t=2 minutes vs 2-hour preincubation.
Experimental: To validate the computational leads, the remaining compounds were subjected to a primary SARS-CoV-2 M^pro activity inhibition screen in which they were pre-incubated with the enzyme and the initial velocities of cleavage of a FRET peptide were determined. The Z′-factor of the assay was 0.65, and the distribution of z-scores of compounds and positive (no inhibitor) and negative (no enzyme) controls is shown in FIG. 20.
For each compound, IC50 curves were generated using a continuous fluorescence assay. Reaction volumes of 40 μL were used in Corning half area 96-well plates. […] All the reactions were done in triplicate. For IC50 determination, the initial rate data was used, and the kinetic values were obtained directly from nonlinear regression of substrate-velocity curves in the presence of various concentrations of the inhibitor. The equation Y=(Top-Bottom)/(1+1{circumflex over (0)}(X-log IC50))+Bottom; X=log(concentration) and Y=binding; was used in the nonlinear regression.
(§1) Similar fluorescence assay was used to determine the time dependent IC50 curves. The plate with 10 μL of enzyme (1 μM) and 10 μL of the appropriate inhibitor dilution in 20 mM Tris-HCl, pH 7.35 with 1.25% DMSO was incubated at room temperature on a titer plate shaker with varying enzyme pre-incubation times (2, 15, 30, 45, 60 and 120 min) and centrifuged briefly at 1000 g just before incubation time ends. […] The equation Y=(Top-Bottom)/(1+1{circumflex over (0)}(X-log IC50))+Bottom; X=log(concentration) and Y=binding; was used in the nonlinear regression.
For series [2], the target named is T1, SARS-CoV-2 M^pro. The following applies: for Ki / kinact (10^−3 s^−1): saturation profile, with SEM.
Experimental: as §1
Where [3] appears, read: read-out: IC50 (μM) - 2 min, 2 min co-incubation of enzyme and inhibitor, with standard deviation.
Where [4] appears, read: read-out: IC50 (μM) - 120 min, 120 min pre-incubation, with standard deviation.

Consider `O=C(CCl)N1CCN(Cc2cccc3ccccc23)CC1` [Compound A], for which, in the series with Vero E6 (CRL-1586) cells, the cytotoxic effect result is on record as “less than other compounds”. Moreover, on SARS-CoV-2 M^pro [1] (setting [3]), the IC50 amounted to 16.3 ± 1.3 µM. Further, the concentration for half-maximal inhibition (IC50) on SARS-CoV-2 M^pro [1] (setting [4]) is 0.3 ± 0.03 µM. For the same compound, at SARS-CoV-2 M^pro [1], the “fold decrease in IC50, initial vs final inhibition value” was 54 fold. In addition, at SARS-CoV-2 M^pro [2] (inactivation efficiency), the “kinact/KI” value turned out to be 441 ± 297 M⁻¹ s⁻¹. Moreover, at SARS-CoV-2 M^pro [2], the inhibitory constant (Ki) turned out to be 11.5 µM and the “kinact (10^−3 s^−1)” value was 5.1 ± 0.5 10^−3 s^−1.
For the compound `O=C(CCl)N1CCN(Cc2cccc(Cl)c2)CC1` [Compound B], the IC50 at SARS-CoV-2 M^pro [1] (setting [3]) stood at 12.8 ± 5.1 µM. Further, the 50% inhibitory concentration (IC50) at SARS-CoV-2 M^pro [1] (setting [4]) worked out at 0.4 ± 0.13 µM. For the same compound, the “fold decrease in IC50, initial vs final inhibition value” on SARS-CoV-2 M^pro [1] came out at 32 fold. Moreover, the “kinact/KI” value on SARS-CoV-2 M^pro [2] (inactivation efficiency) came to 697 ± 697 M⁻¹ s⁻¹. Besides, at SARS-CoV-2 M^pro [2], the inhibitory constant (Ki) was 5.97 µM and 6 µM; the “kinact (10^−3 s^−1)” value was 4.2 ± 0.8 10^−3 s^−1.
For `COc1ccc(C2CC(c3ccccc3)=NN2C(=O)CCl)cc1OC` (centres unmarked) [Compound C], the “IC50 fold lower than the IC50s of the other compounds” value against SARS-CoV-2 M^pro [1] (preliminary analysis, 2 min) is given as “at least 5 fold”. Besides, the IC50 at SARS-CoV-2 M^pro [1] (setting [3]) is 2.39 µM and 2.4 µM. Further, the IC50 on SARS-CoV-2 M^pro [1] (read-out: IC50 after a 2-hour preincubation, 2-hour preincubation) stood at 0.16 µM. Further, on SARS-CoV-2 M^pro [1], the “fold decrease in IC50, initial vs final inhibition value” amounted to 15 fold. Also, at SARS-CoV-2 M^pro [2], the “kinact/KI fold higher relative to the other compounds” value is “at least 4 fold”; the Ki was 5.27 µM and 5.3 µM; the “kinact (10^−3 s^−1)” value is recorded as 23.5 ± 2.6 10^−3 s^−1. On SARS-CoV-2 M^pro [2] (inactivation efficiency), the “kinact/KI (M^−1 s^−1)” value is 4,460 M^−1 s^−1.
`CC(C)CC1CN(C(=O)CCl)CCN1Cc1cccc(Cl)c1` (centres unmarked) [D]: the values for the IC50 at SARS-CoV-2 M^pro [1] (setting [3]) and at SARS-CoV-2 M^pro [1] (setting [4]) were 16 ± 0.9 µM and 0.41 ± 0.06 µM, respectively. Moreover, the “fold decrease in IC50, initial vs final inhibition value” on SARS-CoV-2 M^pro [1] was 39 fold. Moreover, at SARS-CoV-2 M^pro [2], the inhibitory constant (Ki) is ≥ 62.5 µM. The “kinact (10^−3 s^−1)” value on SARS-CoV-2 M^pro [2] is reported as ≥16.6 10^−3 s^−1.

Broadly, the IC50 is the concentration that inhibits the measured activity by half. The kinact/KI is the maximal inactivation rate divided by the concentration that gives half of it. In general, Ki refers to a dissociation constant, usually derived from enzyme kinetics or from competition with a known ligand. The low end stands for tighter binding, the high end for weaker binding.
